Reference: patent US6566048B1, “Acetyl-COA-carboxylase from Candida albicans” (Syngenta Limited, priority 1997, dated 2003)
Converted amounts (≈) assume the structure as drawn.

Experiments:
[1] = molecular target: ACCase preparation from S. cerevisiae CLS2-13 (C. albicans ACC1 gene in Yep24) (Candida albicans, UniProt A0A1D8PRR7); test: In-vitro ACCase assay ([14C] NaHCO3 incorporation); format: biochemical; details: 37° C., 5 minutes, read-out: IC50 for Soraphen A (nM) against ACCase preparations
Description: (§1) Cultures of the appropriate yeast strains were grown to the exponential phase of growth (for Saccharomyces and Candida strains respectively). These were then harvested by centrifugation (4400 g, 10 min, 4° C.), washed twice in 700 ml of 50 mM Tris pH7.5 containing 20% w/v gylcerol, resuspending the cell pellet each time. […] The volume of buffer required was dependent on the total packed cell wet weight. (i.e. 1 ml buffer added per 6 gm of packed wet cell pellet).
(§2) The cell paste was homogenised using a pre-cooled Bead-Beater (Biospec Products, Bartlesville, Okla. 74005) with 4×10 second Bursts, allowing 20 second intervals on ice. The preparation was then centrifuged at 31,180 g for 30 minutes. After centrifugation the supernatant was immediately decanted into a container, then aliquoted before snap freezing in liquid nitrogen.

[2] = molecular target: ACCase preparation from S. cerevisiae PNS 117a 5C (Candida albicans, UniProt A0A1D8PRR7); test: In-vitro ACCase assay ([14C] NaHCO3 incorporation); format: biochemical; details: 37° C., 5 minutes, read-out: IC50 for Soraphen A (nM) against ACCase preparations
Description: as §1, §2

[3] = molecular target: ACCase preparation from S. cerevisiae PNS 117b 6A (Candida albicans, UniProt A0A1D8PRR7); test: In-vitro ACCase assay ([14C] NaHCO3 incorporation); format: biochemical, C. albicans; details: 37° C., 5 minutes, read-out: IC50 for Soraphen A (nM) against ACCase preparations
Description: as §1, §2

S. cerevisiae CLS2-13 = test: In-vitro antifungal activity, broth-dilution liquid MIC; format: cell-based; details: Saccharomyces cerevisiae, CLS213, 30° C., 48h, MIC determined visually, read-out: Liquid MIC (μg/ml) for Soraphen A
Description: (§3) Compounds were tested over a concentration range of 1024-0.00098 μg/ml by a broth-dilution method in microtitre plates using doubling dilutions in YPD or YPGal (both containing 500 μg/l d-biotin). Stock solutions of inhibitors were prepared at 51.2 mg/ml in Dimethyl sulphoxide (DMSO) (final assay concentration of DMSO was 2% v/v). Each Yeast culture was added to the well to give a final 10^4 cfu/well. The plates were incubated at 30° C. for 48h and MIC's determined visually.

[4] = tested on: S. cerevisiae PNS 117a 5C; test: as above; format: cell-based; details: Saccharomyces cerevisiae, PNS117A5C, 30° C., 48h, MIC determined visually, read-out: Liquid MIC (μg/ml) for Soraphen A
Description: as §3

C. albicans B2630 = test: as above; format: cell-based; details: Candida albicans, 30° C., 48h, MIC determined visually, read-out: Liquid MIC (μg/ml) for Soraphen A
Description: as §3

S. cerevisiae Mey 134 = test: as above; format: cell-based; details: Saccharomyces cerevisiae, MEY134, 30° C., 48h, MIC determined visually, read-out: Liquid MIC (μg/ml) for Soraphen A
Description: as §3

[5] = tested on: S. cerevisiae PNS 120b 1C; test: as above; format: cell-based; details: Saccharomyces cerevisiae, PNS120B1C, 30° C., 48h, MIC determined visually, read-out: Liquid MIC (μg/ml) for Soraphen A
Description: as §3

[6] = tested on: S. cerevisiae PNS 117b 6A; test: as above; format: cell-based; details: Saccharomyces cerevisiae, PNS117B6A, 30° C., 48h, MIC determined visually, read-out: Liquid MIC (μg/ml) for Soraphen A
Description: as §3

[7] = tested on: S. cerevisiae PNS 120a 6C; test: as above; format: cell-based; details: Saccharomyces cerevisiae, PNS120A6C, 30° C., 48h, MIC determined visually, read-out: Liquid MIC (μg/ml) for Soraphen A
Description: as §3

C. albicans ACC1 = details: isolated fully functional C. albicans ACC1
Description: The assay was conducted in 96 well, flat bottomed polystyrene microtitre plates. All test and control samples were tested in duplicate in this assay.
100 μl of the ACCase enzyme preparation (in 50 mM Tris pH7.5 containing 1 mM EGTA, 1 mM EDTA (disodium salt), 1 mM DTT, 0.25 mM Pefabloc hydrochloride, 1 μM Leupeptin hemisulphate, 1 μM Pepstatin A, 0.5 μM Trypsin inhibitor, and 20% w/v glycerol) was added to each well of the microtitre plate. Each well contained either a 3 μl test sample made up in DMSO or 3 μl DMSO alone (NB. Final DMSO concentrations in the assay were 1.48% v/v). The microtitre plates were placed in a water bath maintained at 37° C. 10 μl of [^14C] NaHCO3 containing 9.25 kBq in 378 mM NaHCO3 was then added to each well. […]
After the addition of the stop reagent the plates were left open in the water bath for a further 30 minutes to allow the ^14CO2 to escape. […] Radioactivity in the samples was then determined by scintillation counting (Wallac WinSpectral 1414, Turku, Finland).
IC50's were calculated from the data using non-linear regression techniques available in the ORIGIN software package (Microcal Software Inc., Massachusetts, USA).

Sequence of ACCase preparation from S. cerevisiae PNS 117b 6A (A0A1D8PRR7 entry or part of it): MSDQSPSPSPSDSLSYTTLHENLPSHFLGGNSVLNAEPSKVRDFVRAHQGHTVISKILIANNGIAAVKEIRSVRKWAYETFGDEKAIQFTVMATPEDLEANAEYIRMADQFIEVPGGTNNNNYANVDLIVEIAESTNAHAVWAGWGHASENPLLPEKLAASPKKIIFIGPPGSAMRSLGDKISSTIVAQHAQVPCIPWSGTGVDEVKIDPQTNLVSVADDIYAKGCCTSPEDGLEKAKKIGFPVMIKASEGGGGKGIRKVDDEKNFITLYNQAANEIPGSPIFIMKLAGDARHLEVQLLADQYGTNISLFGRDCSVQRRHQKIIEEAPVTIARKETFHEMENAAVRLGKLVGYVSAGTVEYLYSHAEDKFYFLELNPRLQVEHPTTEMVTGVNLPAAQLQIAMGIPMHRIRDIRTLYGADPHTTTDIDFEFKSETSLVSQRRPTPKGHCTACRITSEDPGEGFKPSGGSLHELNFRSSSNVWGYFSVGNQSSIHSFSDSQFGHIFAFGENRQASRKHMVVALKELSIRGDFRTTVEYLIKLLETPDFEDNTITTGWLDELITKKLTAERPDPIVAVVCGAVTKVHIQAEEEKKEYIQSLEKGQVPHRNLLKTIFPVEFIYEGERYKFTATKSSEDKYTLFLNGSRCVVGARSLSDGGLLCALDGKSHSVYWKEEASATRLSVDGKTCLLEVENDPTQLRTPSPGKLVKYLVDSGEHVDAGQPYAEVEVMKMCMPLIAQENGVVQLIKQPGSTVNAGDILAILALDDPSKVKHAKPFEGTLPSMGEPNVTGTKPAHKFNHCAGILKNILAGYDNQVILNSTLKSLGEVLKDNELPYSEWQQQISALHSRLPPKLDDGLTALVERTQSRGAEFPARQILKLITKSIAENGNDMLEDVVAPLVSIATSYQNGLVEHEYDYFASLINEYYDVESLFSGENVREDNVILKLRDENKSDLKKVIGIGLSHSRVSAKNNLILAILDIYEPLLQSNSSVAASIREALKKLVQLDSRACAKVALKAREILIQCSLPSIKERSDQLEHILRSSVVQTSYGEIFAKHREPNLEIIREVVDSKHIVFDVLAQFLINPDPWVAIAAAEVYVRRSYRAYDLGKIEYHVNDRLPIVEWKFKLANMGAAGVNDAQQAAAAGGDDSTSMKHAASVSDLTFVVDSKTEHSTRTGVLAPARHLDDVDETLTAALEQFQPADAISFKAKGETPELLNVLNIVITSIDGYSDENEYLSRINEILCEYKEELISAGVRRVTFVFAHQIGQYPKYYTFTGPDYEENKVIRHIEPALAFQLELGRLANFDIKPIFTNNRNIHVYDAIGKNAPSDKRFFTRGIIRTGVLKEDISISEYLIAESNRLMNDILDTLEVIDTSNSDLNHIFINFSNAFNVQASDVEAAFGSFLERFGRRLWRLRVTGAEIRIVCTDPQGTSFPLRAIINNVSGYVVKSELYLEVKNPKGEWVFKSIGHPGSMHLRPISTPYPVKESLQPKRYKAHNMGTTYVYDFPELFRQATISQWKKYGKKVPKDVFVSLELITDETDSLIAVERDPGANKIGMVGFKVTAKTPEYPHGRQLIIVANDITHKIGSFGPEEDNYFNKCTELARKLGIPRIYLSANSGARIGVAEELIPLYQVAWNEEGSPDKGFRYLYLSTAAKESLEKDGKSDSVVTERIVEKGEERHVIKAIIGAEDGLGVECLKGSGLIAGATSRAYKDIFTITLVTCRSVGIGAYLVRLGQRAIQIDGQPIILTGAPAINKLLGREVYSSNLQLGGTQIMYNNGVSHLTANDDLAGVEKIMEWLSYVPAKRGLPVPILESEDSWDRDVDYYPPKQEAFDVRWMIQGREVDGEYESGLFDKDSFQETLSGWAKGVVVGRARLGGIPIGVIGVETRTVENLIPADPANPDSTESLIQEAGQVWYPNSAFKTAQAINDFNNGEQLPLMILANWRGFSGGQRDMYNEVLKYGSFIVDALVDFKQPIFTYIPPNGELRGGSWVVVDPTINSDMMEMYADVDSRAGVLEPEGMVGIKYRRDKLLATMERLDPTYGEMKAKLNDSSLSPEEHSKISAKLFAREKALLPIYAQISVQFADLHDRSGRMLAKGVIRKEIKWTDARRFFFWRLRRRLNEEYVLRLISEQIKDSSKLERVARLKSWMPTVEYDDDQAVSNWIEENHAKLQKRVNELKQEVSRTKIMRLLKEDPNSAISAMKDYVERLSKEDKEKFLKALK
Sequence of ACCase preparation from S. cerevisiae PNS 117a 5C (A0A1D8PRR7 entry or part of it): as above

Structure (SMILES): CO[C@H]1CCCC[C@@H](c2ccccc2)OC(=O)[C@@H](C)[C@@]2(O)O[C@H]([C@@H](C)[C@H](O)[C@H]2OC)[C@@H](C)/C=C/[C@H]1OC [Soraphen A]
- IC50 [1]: 2.5 nM
- IC50 [2]: 17.5 nM
- IC50 [3]: 13.1 nM
- MIC (S. cerevisiae CLS2-13): 2 µg/mL (≈ 3.84 µM)
- MIC [4]: 2 µg/mL (≈ 3.84 µM)
- MIC (C. albicans B2630): 0.003 µg/mL (≈ 0.00576 µM)
- MIC (S. cerevisiae Mey 134): 8 µg/mL (≈ 15.4 µM)
- MIC [5]: 0.125 µg/mL (≈ 0.24 µM)
- MIC [6]: 4 µg/mL (≈ 7.68 µM)
- MIC [7]: 0.5 µg/mL (≈ 0.96 µM)
- inhibition by SoraphenA (C. albicans ACC1): 100%
